Laboratory results reported in paper PMC4493460, “Increasing the Biological Stability Profile of a New Chemical Entity, UPEI-104, and Potential Use as a Neuroprotectant Against Reperfusion-Injury” (Brain Sciences, 2015).
Entries after “also recorded” stand apart in the source; their conditions may differ. Read-outs that look alike come from different tables or passages of the source.

What was measured:
[1] = parameters: method as in PMID 21172313; settings: cited from earlier work
[2] = Stability in human plasma (Cerep, HPLC-MS/MS); format: in vitro ADME; settings: 1.0E−06 M, 37 °C; for half-life at 1 µM: human, plasma, 0-120 min
Procedure: The detection method was HPLC-MS/MS. At the end of incubation at each of the time points, acetonitrile was added to the incubation mixture followed by centrifugation. Samples were analyzed by HPLC-MS/MS and peak areas were recorded for each analyte. The area of precursor compound remaining after each of the time points relative to the amount remaining at time zero, expressed as percent, was calculated. […] Further experimental detail may be found in [30].
Further experimental detail may be found in [32].

[3] = parameters: method as in PMID 22277933; settings: animals injected i.v.; immediately, as early as 1 min after injection; previous work; cited from earlier work
[4] = test system: infarct volume following tMCAO; parameters: method as in PMID 22277933; settings: cited from earlier work
NADPH oxidase = test system: NADPH oxidase; parameters: method as in PMID 22277933, PMID 18511205; settings: compared with apocynin alone; cited from earlier work
in vitro = settings: for microsomal CLint at 100 nM / % Compound Remaining, 1st / % Compound Remaining, 2nd / % Compound Remaining, Mean / half-life at 100 nM: human, microsomes; for % Compound Remaining, 1st / % Compound Remaining, 2nd / % Compound Remaining, Mean: 100 nM
Procedure: Briefly, incubation was performed at 37 °C for times between 0 and 60 min as indicated. The detection method was HPLC-MS/MS. Intrinsic clearance from microsomes (S9, cryopreserved hepatocytes, recombinant CYP, recombinant UGT) was assayed. Metabolic stability, expressed as percent of the parent compound remaining, was calculated by comparing the peak area of the compound at the time point relative to that at time 0. The half-life (T1/2) was estimated from the slope of the initial linear range of the logarithmic curve of compound remaining (%) vs. time, assuming the first-order kinetics.
A solution of each test compound (1000 ng/mL or 10 μM) was prepared as described above and infused into the TSQ Quantum source via syringe pump at a constant rate. Full scan MS analysis was conducted and total ion current chromatograms and corresponding mass spectra were generated for each test compound in both positive and negative ionization modes. The precursor ions for MS/MS were selected from either the positive or the negative mass spectrum, as a function of the respective ion abundance. In addition, product ion MS/MS analysis was performed in order to determine the appropriate selected fragmentation reaction for use in quantitative analysis. The final reaction monitoring parameters were chosen to maximize the ability to quantify the test compound when present within a complex mixture of components. Following identification of the specific SRM transition to be used for each test compound, the detection parameters were optimized using the automated protocol in the TSQ Quantum Compound Optimization Workspace software package (Thermo Scientific, MA, USA). Finally, the chromatographic conditions to be used for LC-MS analysis were identified by injection and separation of the analyte on a suitable LC column and adjustment of the gradient conditions as necessary. Further experimental detail may be found in [32].
Mobile Phase B: 6 mM ammonium formate/3 mM formic acid in water/acetonitryl (ACN; 1/9, v/v). Column: Hypersil GOLD DASH HTS, 2.1 × 20 mm, 3 micron (Thermo Scientific, MA, USA; see Table 1 for details).

[5] = test system: infarct volume following tMCAO; experiment: Transient middle cerebral artery occlusion (tMCAO) ischemia-reperfusion injury, infarct volume by TTC staining; format: in vivo, Sprague-Dawley rats; settings: rats, 30 min occlusion, 5.5 h reperfusion
Procedure: All surgical procedures described below were approved by the University of Prince Edward Island Animal Care Committee and were in compliance with the requirements of the Canadian Council on Animal Care. Our surgical protocol has been described previously. Briefly, rats were anaesthetized with sodium thiobutabarbital (Inactin, Sigma Aldrich, St. Louis, MO, USA; 100 mg/kg, intraperitoneal; i.p.) and kept warm on a heating pad maintained at 37 ± 1 °C. A venous cannula was inserted into the right femoral vein to allow for all drug injections and supplemental anaesthesia, if required. Rats were then transferred to a stereotaxic frame to allow for surgical access to the right middle cerebral artery (MCA). As detailed in our previous publication, we used a 3-point occlusion of the MCA by inserting suture under the vessel and applying pressure, by gently lifting the sutures, to occlude flow by 100% (as confirmed by laser Doppler flowmetry). The period of occlusion lasted for 30 min, followed by a 5.5 h period of reperfusion, which was accomplished by removal of these sutures (transient ischemia model, tMCAO). […] Sections were then scanned (both sides) the next day, and infarct area was measured using imaging software (Image J; Scion Corporation, Frederick, MD, USA). […] Data was analyzed by an investigator blinded to the treatment groups. […]

global ischemia = test system: global ischemia; parameters: method as in PMID 16650838; settings: gerbils, given 5 min following 5 min of global ischemia, assessed four days later; cited from earlier work
infarct volume, MCAO = test system: infarct volume, MCAO; parameters: method as in PMID 1299626, PMID 19417757, PMID 21946070, PMID 19175604, PMID 17697529; settings: cited from earlier work

SMILES: O=C(O)CCCCC1CCSS1 (stereo not drawn) [LA, α-Lipoic acid]
- Neuroprotection ([1]; 5 mg/kg (most effective dose), administered just prior to the beginning of reperfusion): did not result in significant neuroprotection
- Neuroprotection ([1]; 5 mg/kg, administered prior to both occlusion and reperfusion): produced neuroprotection

SMILES: CC(C)[N+](C)(CCOC(=O)C1c2ccccc2Oc2ccccc21)C(C)C [Propantheline, reference compound]
- half-life at 1 µM ([2]; read-out: Half-Life, 1st): 7.2 min
- half-life at 1 µM ([2]; read-out: Half-Life, 2nd): 7.2 min
- half-life at 1 µM ([2]; read-out: Half-Life, Mean): 7 min

SMILES: CCCOc1cc(N)ccc1C(=O)OCCN(CC)CC [Propoxycaine, reference compound]
- half-life at 1 µM ([2]; read-out: Half-Life, 1st): < 30 min
- half-life at 1 µM ([2]; read-out: Half-Life, 2nd): < 30 min
- half-life at 1 µM ([2]; read-out: Half-Life, Mean): < 30 min

SMILES: COc1cc(C(C)=O)ccc1OC(=O)CCCCC1CCSS1 (centres unmarked) [UPEI-100]
- Detection in tissue samples / central nervous system following intravenous injection [3]: undetectable; also recorded: unable to detect; also recorded: could not be detected
- % Compound Remaining, 1st ([2]; incubation 0 min): 100.0%
- % Compound Remaining, 2nd ([2]; incubation 0 min): 100.0%
- % Compound Remaining, Mean ([2]; incubation 0 min): 100%
- % Compound Remaining, 1st ([2]; incubation 30 min): 92.7%
- % Compound Remaining, 2nd ([2]; incubation 30 min): 126.6%
- % Compound Remaining, Mean ([2]; incubation 30 min): 110%
- % Compound Remaining, 1st ([2]; incubation 60 min): 100.7%
- % Compound Remaining, 2nd ([2]; incubation 60 min): 116.0%
- % Compound Remaining, Mean ([2]; incubation 60 min): 108%
- % Compound Remaining, 1st ([2]; incubation 90 min): 99.5%
- % Compound Remaining, 2nd ([2]; incubation 90 min): 111.2%
- % Compound Remaining, Mean ([2]; incubation 90 min): 105%
- % Compound Remaining, 1st ([2]; incubation 120 min): 109.9%
- % Compound Remaining, 2nd ([2]; incubation 120 min): 140.1%
- % Compound Remaining, Mean ([2]; incubation 120 min): 125%
- half-life at 1 µM ([2]; read-out: Half-Life, 1st): > 120 min
- half-life at 1 µM ([2]; read-out: Half-Life, 2nd): > 120 min
- half-life at 1 µM ([2]; read-out: Half-Life, Mean): > 120 min
- Dose at which infarct volume was reduced ([4]; same in vivo model of reperfusion-injury, previously observed): 0.1 mg/kg
- Dose for equivalent neuroprotection compared to each parent compound (lipoic acid, apocynin), fold lower ([4]; tMCAO, previous work): 100 fold
- Inhibition of NADPH oxidase (NADPH oxidase): inhibited NADPH oxidase
- Flags (detection of test compound in the assay matrix) (in vitro): not detected in the assay at any time point
- microsomal CLint at 100 nM (in vitro): 6030 µL/min/mg
- % Compound Remaining, 1st (in vitro; 0 h): 100.0%
- % Compound Remaining, 2nd (in vitro; 0 h): 100.0%
- % Compound Remaining, Mean (in vitro; 0 h): 100%
- % Compound Remaining, 1st (in vitro; 0.25 h): 0.0%
- % Compound Remaining, 2nd (in vitro; 0.25 h): 0.0%
- % Compound Remaining, Mean (in vitro; 0.25 h): 0%
- % Compound Remaining, 1st (in vitro; 0.5 h): 0.0%
- % Compound Remaining, 2nd (in vitro; 0.5 h): 0.0%
- % Compound Remaining, Mean (in vitro; 0.5 h): 0%
- % Compound Remaining, 1st (in vitro; 0.75 h): 0.0%
- % Compound Remaining, 2nd (in vitro; 0.75 h): 0.0%
- % Compound Remaining, Mean (in vitro; 0.75 h): 0%
- % Compound Remaining, 1st (in vitro; 1 h): 0.0%
- % Compound Remaining, 2nd (in vitro; 1 h): 0.0%
- % Compound Remaining, Mean (in vitro; 1 h): 0%
- half-life at 100 nM (in vitro; 1st): 1.1 min
- half-life at 100 nM (in vitro; 2nd): < 15 min
- half-life at 100 nM (in vitro; Mean): ~1 min

SMILES: COc1cc(C(C)=O)ccc1OCCCCCC1CCSS1 (centres unmarked) [UPEI-104]
- % Compound Remaining, 1st ([2]; incubation 0 min): 100.0%
- % Compound Remaining, 2nd ([2]; incubation 0 min): 100.0%
- % Compound Remaining, Mean ([2]; incubation 0 min): 100%
- % Compound Remaining, 1st ([2]; incubation 30 min): 89.3%
- % Compound Remaining, 2nd ([2]; incubation 30 min): 112.0%
- % Compound Remaining, Mean ([2]; incubation 30 min): 101%
- % Compound Remaining, 1st ([2]; incubation 60 min): 95.5%
- % Compound Remaining, 2nd ([2]; incubation 60 min): 98.6%
- % Compound Remaining, Mean ([2]; incubation 60 min): 97%
- % Compound Remaining, 1st ([2]; incubation 90 min): 82.9%
- % Compound Remaining, 2nd ([2]; incubation 90 min): 76.4%
- % Compound Remaining, Mean ([2]; incubation 90 min): 80%
- % Compound Remaining, 1st ([2]; incubation 120 min): 77.2%
- % Compound Remaining, 2nd ([2]; incubation 120 min): 90.1%
- % Compound Remaining, Mean ([2]; incubation 120 min): 84%
- half-life at 1 µM ([2]; read-out: Half-Life, 1st): 352 min
- half-life at 1 µM ([2]; read-out: Half-Life, 2nd): 351 min
- half-life at 1 µM ([2]; read-out: Half-Life, Mean): > 120 min
- Infarct volume vs vehicle group ([5]; 0.1 mg/kg i.v. 30 min prior to MCA occlusion, p < 0.05): significantly lower
- Effect on infarct volume as a function of dose ([5]; 0.001–0.1 mg/kg i.v. 30 min prior to MCA occlusion): dose-dependent reduction in infarct volume
- microsomal CLint at 100 nM (in vitro): 963 µL/min/mg
- half-life at 100 nM (in vitro; 1st): 7.3 min
- half-life at 100 nM (in vitro; 2nd): 7.1 min
- half-life at 100 nM (in vitro; Mean): ~7 min

SMILES: COc1cc(C(C)=O)ccc1O [apocynin, 4-hydroxy-3-methoxyacetophenone]
- Neuronal degeneration, neuronal death and microglial activation (global ischemia): decreased neuronal degeneration and delayed neuronal death and microglial activation
- Infarct volume (infarct volume, MCAO; administered during occlusion of the middle cerebral artery): attenuation of infarct volume
- Infarct volume benefit (infarct volume, MCAO; administration delayed following the onset of reperfusion): benefits were lost
